Results as given in patent US12600704B2, “Substituted 1,2,4-triazoles and methods of use” (STINGINN LLC, priority 2019, dated 2026).

Assays:
hTERT cells = test: ELISA of type I IFN and cytokines in hTERT cells; assay type: cell-based, human
Source text: (§1) Example 2: Examining Agonists of STING. Compounds of the present invention were examined for its ability to activate the type I interferon (IFN) promoter, using a live cell assay. This assay comprised immortalized human fibroblasts (hTERT) that were stably transfected with the type I IFN promoter driving luciferase as well as the CMV promoter driving SEAP (hTERT-pIFNβ-Glu). The live cell assay was developed by the Barber lab and has been patented. The ability of the small molecules to activate the type I IFN promoter and the transcription of luciferase, but not SEAP was assessed. This is since the activation of STING, typically by CDNs, in turn activates the transcription factors NF-κB and IRF3, both of which are required to induce the transcriptional stimulation of the Type I IFN promoter, but not the CMV promoter (IRF3 and NF-κB transcription factor binding sites are not contained in the CMV promoter). Thus, activation of STING by a small molecule identified in the first screen (HTS), results in the level of luciferase increasing relative to SEAP production. […] To confirm this, Compound 28 was administered onto normal hTERT cells and the production of Type I IFN measured using ELISA (FIG. 1C). […] Thus, Compound 28 is a more robust activator of STING compared to CDNs.
Example 10: Interferon β ELISA analysis. […]

[1] = tested on: type I IFN promoter (IFNβ promoter) in hTERT-pIFNβ-Glu cells; test: Live cell assay: type I IFN promoter driving luciferase (CMV promoter driving SEAP) in hTERT-pIFNβ-Glu cells; assay type: cell-based, human
Source text: Compounds of the present invention were examined for their ability to activate the type I interferon (IFN) promoter, using a live cell assay. This assay comprised immortalized human fibroblasts (hTERT) that were stably transfected with the type I IFN promoter driving luciferase as well as the CMV promoter driving SEAP (hTERT-pIFNβ-Glu), as described in PCT Application No. PCT/US2019/025380, inventor Glen N. Barber, published as WO2019195285, which is herein incorporated by reference in its entirety and for all purposes. The ability of the small molecules to activate the type I IFN promoter and the transcription of luciferase, but not SEAP was assessed. […]
Solubility was determined using proprietary software, e.g., https://www.researchgate.net/publication/12055195_Internet_Software_for_the_Calculation_of_the_Lipophilicity_and_Aqueous_Solubility_of_Chemical_Compounds, last visited Dec. […]
Example 2: Examining Agonists of STING. […] The ability of the small molecules to activate the type I IFN promoter and the transcription of luciferase, but not SEAP was assessed. […] To confirm this, Compound 28 was administered onto normal hTERT cells and the production of Type I IFN measured using ELISA (FIG. 1C). […]

STING [2] = test: Immunofluorescence of STING trafficking and IRF3/NF-κB nuclear localization in hTERT cells; assay type: cell-based, human
Source text: Example 2: Examining Agonists of STING. Compounds of the present invention were examined for its ability to activate the type I interferon (IFN) promoter, using a live cell assay. This assay comprised immortalized human fibroblasts (hTERT) that were stably transfected with the type I IFN promoter driving luciferase as well as the CMV promoter driving SEAP (hTERT-pIFNβ-Glu). The live cell assay was developed by the Barber lab and has been patented. The ability of the small molecules to activate the type I IFN promoter and the transcription of luciferase, but not SEAP was assessed. This is since the activation of STING, typically by CDNs, in turn activates the transcription factors NF-κB and IRF3, both of which are required to induce the transcriptional stimulation of the Type I IFN promoter, but not the CMV promoter (IRF3 and NF-κB transcription factor binding sites are not contained in the CMV promoter). […] To confirm this, Compound 28 was administered onto normal hTERT cells and the production of Type I IFN measured using ELISA (FIG. 1C). […]
Example 11: Immunofluorescence microscopy. […] Immunostaining was performed with rabbit-anti-STING polyclonal, rabbit-anti-IRF3 (Santa Cruz Biotechnology) or rabbit-anti-p65 (Cell Signaling) followed by fluorescence conjugated secondary antibodies (FITC-goat-anti-rabbit) (Invitrogen). […]

STING [3] = test: Type I IFN production in hTERT cells lacking STING (RNAi); assay type: cell-based, human; conditions: STING RNAi vs control RNAi
Source text: as §1

[4] = molecular target: T1, STING (amino acids 152-379, STING152-379H) (Homo sapiens, UniProt Q86WV6); test: Thermal shift assay (TSA) binding screen with purified STING152-379H
T1 construct: made in house; host or cells: E. coli BL21 DE3 RIPL Codon Plus
Source text: Example 1: Identification of small molecule activators of STING. An assay was designed to identify small compounds that bound to STING. To achieve this, the carboxyl terminal region of STING (amino acids 152-379) fused to a histidine tag was expressed in bacteria as described in materials and methods. Soluble STING dimers were purified over a nickel affinity column and enriched further using gel filtration. Purified STING was used in a thermal shift assay (TSA) to isolate small molecules that bound to STING. A thermal shift assay quantifies the change in the thermal denaturation temperature of a protein. […] Once this was established, purified STING (5 μl; 1 μM) was mixed with 2.5 μl DMSO and compound (1% DMSO final with 2.5% SYPRO orange. The total reaction mixture was 10 μl in […] HEPES and 100 mM NaCl. SYPRO Orange binds nonspecifically to hydrophobic surfaces. When the protein unfolds, the exposed hydrophobic surfaces bind the dye, resulting in an increase in fluorescence by excluding water. The stability curve and its midpoint value (melting temperature, Tm also known as the temperature of hydrophobic exposure, Th) was obtained by gradually increasing the temperature to unfold the protein and measuring the fluorescence at each point. Curves were measured for STING only and STING+small molecule, and ΔTm was calculated. […]

[5] = tested on: STING dependent TBK1 and IRF3 phosphorylation; test: Immunoblot of TBK1/IRF3 phosphorylation in hTERT cells
Protocol: Equal amounts of proteins were resolved on sodium dodecyl sulfate (SDS)-Polyacrylamide gels and then transferred to polyvinylidene fluoride (PVDF) membranes (Millipore). After blocking with 5% Blocking Reagent, membranes were incubated with various primary antibodies (and appropriate secondary antibodies). The image was resolved using an enhanced chemiluminescence system ECL (Thermo Scientific) and detected by autoradiography (Kodak).

T1 sequence (Q86WV6 with tags, fused parts or gaps): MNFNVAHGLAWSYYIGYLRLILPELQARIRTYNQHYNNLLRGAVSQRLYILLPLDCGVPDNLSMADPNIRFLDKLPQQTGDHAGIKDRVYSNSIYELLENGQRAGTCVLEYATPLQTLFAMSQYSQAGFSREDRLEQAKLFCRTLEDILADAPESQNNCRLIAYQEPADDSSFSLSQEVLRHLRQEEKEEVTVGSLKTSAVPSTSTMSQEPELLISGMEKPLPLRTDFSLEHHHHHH

| Compound | Production of type I IFN (hTERT cells; human fibroblasts (hTERT)) | Activation of the type I IFN promoter (luciferase but not SEAP) [1] | fold induction at 50 µM ([1]; Homo sapiens, 50 μM, 0.5% DMSO, luciferase, approx. 24 h (FIGS. 2A-C) or approx. 12 h (FIGS. 3A-B), read-out: Activity (Fold changes of IFNβ promoter activity at 50 μM)) | Production of cytokines IL6, IL8 and MCP-1 (hTERT cells; hTERT cells) | STING trafficking and IRF3/NF-κB activation and nuclear localization (STING [2]) | Duration of STING activation (STING [2]; STING trafficking, nuclear localization of NF-κB and IRF3) | Type I IFN production in hTERT cells lacking STING (STING [3]) | Binding to STING [4] | Activation/phosphorylation of TBK1 (and IRF3) [5] |
| --- | --- | --- | --- | --- | --- | --- | --- | --- | --- |
| 2-((5-(4-ethylphenyl)-4H-1,2,4-triazol-3-yl)thio)-1-phenylpropan-1-one [Compound 28] | induce the production of type I IFN and other cytokines | – | – | – | – | – | – | – | – |
| CCc1ccc(-c2nnc(SC(C)C(=O)c3ccccc3)[nH]2)cc1 (stereo not drawn) [Compound 28, 2-((5-(4-ethylphenyl)-4H-1,2,4-triazol-3-yl)thio)-1-phenylpropan-1-one] | – | exhibited the ability to activate the type I IFN promoter in hTERT-pIFNβ-Glu and induce the expression of luciferase but not SEAP | 8 | the production of cytokines IL6, IL8 and MCP-1 | induces STING trafficking and IRF3/NF-κB activation and nuclear localization in hTERT cells | over 24 hours | unable to produce type I IFN | can bind to and specifically activate STING signaling | able to activate TBK-1 |
